Source: US12371463B2, “Methods and compositions for treatment of antibiotic-resistant bacterial infections” (University of Pittsburgh—Of the Commonwealth System of …, priority 2021, dated 2025)
Ends that are not written are not given here.

Experiments:
A. baumannii ATCC 17978 = test: Experimental evolution in increasing antibiotic concentrations, population survival; format: cell-based
Method: Experimental evolution: Three independent evolution experiments were conducted. The ancestor strains were propagated in a rich medium modified from M9 (“M9+”) containing 0.37 millmolar (mM) CaCl2), 8.7 mM MgSO4, 42.2 mM Na2HPO4, 22 mM KH2PO4, 21.7 mM NaCl, 18.7 mM NH4Cl and 0.2 grams per liter (g/L) glucose and supplemented with 20 milliliters per liter (mL/L) MEM essential amino acids (Gibco 11130051), 10 mL/L MEM nonessential amino acids (Gibco 11140050), and 10 mL each trace mineral solution A, B, and C (Corning 25021-3Cl).
In the first experiment, a single clone of A. baumannii ATCC 17978 and P. aeruginosa PA14 were selected and propagated independently for 24 hours in M9^+ in the absence of antibiotics. Each population was then sub-cultured into 10 replicate populations. Ten of the populations (5 planktonic and 5 biofilm) were propagated every 24 hours in increasing concentrations of WLBU2 (SEQ ID NO: 1) starting at 0.5× the minimum inhibitory concentration (MIC). The WLBU2 (SEQ ID NO: 1) was doubled after 72 hours until no population survived the treatment. As a control, the same number of strains were propagated (both planktonically and in biofilm) in the absence of antibiotics (e.g., WLBU2 (SEQ ID NO: 1)). Ten populations (5 planktonic and 5 biofilm) were propagated in increasing convention of the cationic peptide polymyxin B. […]
(§1) For identifying mechanisms of resistance to WLBU2 (SEQ ID NO: 1), laboratory strains of A. baumannii ATCC 17978 and P. aeruginosa PA14 that had no prior exposure to WLBU2 (SEQ ID NO: 1) were propagated. […] Two factors that increase the likelihood of developing resistance were determined to be: i) the mutation supply determined by population size and the mutation rate and ii) the strength of selection imposed by the antibiotic. […] In Table 2, the mean mutations per nucleotide and the cumulative probability of a mutation per nucleotide knowing the mutation rate was calculated using the length of the chromosome, the number of divisions/days, and the length of the exposure before facing inhibitory concentrations of antibiotic (WLBU2 (SEQ ID NO: 1)). […]

P. aeruginosa PA14 = test: Experimental evolution in increasing WLBU2 concentrations (previously used protocol), population survival; format: cell-based
Method: Experimental evolution: Three independent evolution experiments were conducted. The ancestor strains were propagated in a rich medium modified from M9 (“M9+”) containing 0.37 millmolar (mM) CaCl2), 8.7 mM MgSO4, 42.2 mM Na2HPO4, 22 mM KH2PO4, 21.7 mM NaCl, 18.7 mM NH4Cl and 0.2 grams per liter (g/L) glucose and supplemented with 20 milliliters per liter (mL/L) MEM essential amino acids (Gibco 11130051), 10 mL/L MEM nonessential amino acids (Gibco 11140050), and 10 mL each trace mineral solution A, B, and C (Corning 25021-3Cl). […]
as §1

[1] = system: P. aeruginosa (PA14 mutS:T114P); test: Experimental evolution with hypermutator ancestor, population survival; format: cell-based
Description: In the second experiment, 5 planktonic populations and 5 biofilm populations under the same conditions described above, and a mutator strain of P. aeruginosa (PA14 mutS:T114P), obtained from Flynn et al. (“Evolution of Ecological Diversity in Biofilms of Pseudomonas aeruginosa by Altered Cyclic Diguanylate Signaling.” J. Bacteriol., 2016, 198:2608-2618). Additionally, 3 planktonic populations and 3 biofilm populations of the hypermutant strain in the absence of antibiotic (e.g., WLBU2 (SEQ ID NO: 1)) pressure were propagated. Hypermutant strains of bacteria, such as P. aeruginosa, can develop in patients, and may be characterized as having increased mutation rates, e.g., up to 1,000-fold, as compared to wild-type bacteria, such as P. aeruginosa (see, e.g., Maciá, Maria D et al. “Hypermutation is a key factor in development of multiple-antimicrobial resistance in Pseudomonas aeruginosa strains causing chronic lung infections.” Antimicrobial agents and chemotherapy vol. 49, 8 (2005): 3382-6).
(§2) The planktonic propagations were serially passaged through 50 uL into 5 mL of M9+(dilution factor 100) which corresponds to approximately 6.66 generations per day. For the biofilm populations, a polystyrene bead (Polysciences, Inc., Warrington, PA) was transferred to fresh media containing 3 sterile beads. Each bead was rinsed in phosphate buffered saline (PBS) before the transfer to reduce the transfer planktonic cells. Each day, black and white marked beads were alternated, ensuring that the bacteria were growing on the bead for 24 hours, which corresponds to 6 to 7.5 generations/day.
Increasing mutation supply by using hypermutator strain promotes evolution resistance: A method to increase mutation supply during evolution experiments was to use an ancestral strain with a higher mutation rate. These mutator genotypes commonly evolve during chronic infections of P. aeruginosa and therefore relevant to antimicrobial resistance (AMR) evolution. […]

[2] = system: wild-type P. aeruginosa PA14; test: Experimental evolution with extended subinhibitory exposure, population survival; format: cell-based
Method: In the third experiment, 5 planktonic populations of the non-hypermutant laboratorial strain P. aeruginosa PA14 were propagated under subinhibitory concentrations of WLBU2 (SEQ ID NO: 1) for 10 days. The populations that survived the treatment with 1×MIC of WLBU2 (SEQ ID NO: 1) were propagated for 2 days.
as §2
Five planktonic populations of wild-type P. aeruginosa PA14 was propagated for 10 days under subinhibitory concentrations of WLBU2 (SEQ ID NO: 1), followed by 2 days at inhibitory concentrations. It was estimated the probability that any given nucleotide would be mutated during this regime was 0.74, with mean mutations per site of 1.52. […] Different colony morphologies were also detected within each population at the end of the experiment. […]

[3] = system: P. aeruginosa PA14 mutS mutator strain and populations evolved from it; test: MIC by broth microdilution (CLSI), mutator ancestor and mutator-derived evolved populations; format: cell-based; conditions: FIG. 3A, mutS-derived populations and clones from WT ancestor, p<0.05 one-way ANOVA
Method: Phenotypic characterization: antimicrobial susceptibility and aggregation assay: The MIC to WLBU2 (SEQ ID NO: 1) and polymyxin B of the whole populations and 4 clones were determined by broth microdilution according to the Clinical and Laboratory Standards Instituted guidelines (CLSI 2019), in which each bacterial sample was tested in 2-fold increasing concentrations of each antibiotic. WLBU2 (SEQ ID NO: 1) was provided by Peptilogics (Peptilogics, Pittsburgh, PA) and polymyxin B was provided by Alfa Aesar (Alfa Aesar, Wardhill, Mass.). The experiments were performed with three replicates of the antibiotics.

[4] = system: P. aeruginosa PA14 resistant clones (Sm, Wr, Sc); test: Aggregation assay of resistant clones; format: cell-based; conditions: presence (4 μg/ml) versus absence of WLBU2, settled 24 hours at 4° C.
Method: To determine the aggregation ability of the 4 clones selected in the subinhibitory experiment, two replicates (R1 and R2) of each clone and the ancestral strain were grown in 5 mL of M9^+ for 24 hours at 37 degrees Celsius (° C.) in a roller drum at 200 revolutions per minute (RPM). After 24 hours, the whole culture of each clone was transferred to a 13 mm glass tube, and the tubes were allowed to settle over 24 hours at 4° C. without shaking. Replicate 1 (R1) of each clone was vortexed for 30 seconds and the optical density at 600 nanometers (OD600) was measured. From R2, 200 μl of the upper fraction was carefully taken without vortexing and the OD600 was measured. The aggregation percentage was estimated as […]. This experiment was performed with five replicates both in the absence and presence (4 μg/ml) of WLBU2 (SEQ ID NO: 1).

[5] = system: ESKAPE (Enterococcus faecium, Staphylococcus aureus, Klebsiella pneumoniae, Acinetobacter baumannii, Pseudomonas aeruginosa and Enterobacter spp.) pathogens; conditions: in vitro and in vivo, even when protected by biofilms; cited from earlier work
[6] = system: P. aeruginosa and S. aureus biofilms; conditions: cited from earlier work
[7] = planktonic and biofilm, 3 days at 0.5x MIC before the MIC
[8] = five mutator populations per lifestyle

Substance | populations that survived exposure of the MIC (A. baumannii ATCC 17978; [7]) | populations that survived exposure of the MIC (P. aeruginosa PA14; [7]) | Populations that survived entire experiment (%) (P. aeruginosa PA14; previously used protocol, strain PA14, 3 days before inhibitory concentrations) | biofilm populations that survived the treatment [1, 8] | planktonic populations that survived the treatment [1, 8] | Populations that survived entire experiment (%) ([1]; hypermutator ancestor PA14 mutS: T114P, 3 days before inhibitory concentrations) | Populations that survived entire experiment (%) ([2]; extended subinhibitory exposure, strain PA14, 10 days subinhibitory then 2 days inhibitory) | populations that survived the prolonged subinhibitory treatment ([2]; five planktonic populations, 10 days subinhibitory then 2 days inhibitory) | resistance level (MIC) of evolved populations versus WT [3] | aggregation of Sm colonies relative to WT [4] | effectiveness against ESKAPE pathogens [5] | activity against biofilms [6] | biofilm populations that survived in 4-times the MIC (A. baumannii ATCC 17978; biofilm lifestyle, increasing concentrations over 12 days) | planktonic populations that survived in 4-times the MIC (A. baumannii ATCC 17978; planktonic lifestyle, 5 populations, increasing concentrations over 12 days)
RRWVRRVRRVWRRVVRVVRRWVRR [WLBU2] | no populations | no populations | 0 | three | Two | 50 | 40 | two | significantly exceeded WT resistance | only clustered more in the presence of the peptide | highly effective | high activity |  | 
polymyxin B |  |  |  |  |  |  |  |  |  |  |  |  | four out of the five | all
